According to US10870647B2, “Imidazopyridine derivative, method for preparing same, and pharmaceutical composition containing same as active ingredient for preventing or treating cancer” (DAEGU-GYEONGBUK MEDICAL INNOVATION FOUNDATION, priority 2016, dated 2020):
Where two headings read alike, the source gives them in different places.

Experiments:
Test in all cases: Kinase selectivity, scanMAX Kinase assay panel (DiscoverX), % control at 1 uM
Assay type in all cases: binding
[1] = biological target: T1, scanMAX Kinase assay panel (Homo sapiens, UniProt Q8TBX8); conditions: PIP5K2C; 1 uM; read-out: Percent Control (%)
T1 construct: purchased DiscoverX
T1 sequence (Q8TBX8 1-421): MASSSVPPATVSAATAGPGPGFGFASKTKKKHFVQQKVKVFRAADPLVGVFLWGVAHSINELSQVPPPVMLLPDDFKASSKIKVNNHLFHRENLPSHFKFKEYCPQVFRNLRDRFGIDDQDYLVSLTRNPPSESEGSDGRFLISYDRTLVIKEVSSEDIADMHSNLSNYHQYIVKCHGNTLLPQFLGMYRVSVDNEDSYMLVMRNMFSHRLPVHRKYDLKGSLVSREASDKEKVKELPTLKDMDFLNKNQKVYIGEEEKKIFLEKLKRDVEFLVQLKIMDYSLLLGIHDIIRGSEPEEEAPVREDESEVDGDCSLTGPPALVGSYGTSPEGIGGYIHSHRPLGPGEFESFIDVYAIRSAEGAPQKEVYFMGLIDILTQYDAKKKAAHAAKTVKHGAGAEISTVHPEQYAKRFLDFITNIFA
Description: (§1) The following experiment was performed to evaluate the inhibitory activity of the compound of the present invention on more enzymes.
(§2) Particularly, among the compounds of the present invention, the compounds of Example 1, Example 12 and Example 78 were selected and assigned to DiscoverX to measure the kinase selectivity. The experiment was performed by using scanMAX™ Kinase assay panel.
(§3) At this time, the concentration of the drug to be treated to the enzyme was adjusted to 1 uM in DMSO, and the control percentage (% control) was determined according to the following Equation 1. [Example Compound−Positive Control/Negative Control−Positive Control]×100 [Equation 1]
(§4) The enzyme selectivity of the compound of the present invention was judged to be active for the enzyme if the % control was <35 (i.e. less than 35%) for each enzyme.

[2] = biological target: T2, scanMAX Kinase assay panel (Homo sapiens, UniProt P08069); conditions: IGF1R; 1 uM; read-out: Percent Control (%)
T2 construct: purchased DiscoverX
Description: as §1, §2, §3, §4

[3] = biological target: T3, scanMAX Kinase assay panel (Homo sapiens, UniProt P51812); conditions: 1 uM, read-out: Percent Control (%)
T3 construct: purchased DiscoverX
Description: as §1, §2, §3, §4

[4] = biological target: T4, scanMAX Kinase assay panel (Homo sapiens, UniProt Q13188); conditions: MST2; 1 uM; read-out: Percent Control (%)
T4 construct: purchased DiscoverX
T4 sequence (Q13188 1-491): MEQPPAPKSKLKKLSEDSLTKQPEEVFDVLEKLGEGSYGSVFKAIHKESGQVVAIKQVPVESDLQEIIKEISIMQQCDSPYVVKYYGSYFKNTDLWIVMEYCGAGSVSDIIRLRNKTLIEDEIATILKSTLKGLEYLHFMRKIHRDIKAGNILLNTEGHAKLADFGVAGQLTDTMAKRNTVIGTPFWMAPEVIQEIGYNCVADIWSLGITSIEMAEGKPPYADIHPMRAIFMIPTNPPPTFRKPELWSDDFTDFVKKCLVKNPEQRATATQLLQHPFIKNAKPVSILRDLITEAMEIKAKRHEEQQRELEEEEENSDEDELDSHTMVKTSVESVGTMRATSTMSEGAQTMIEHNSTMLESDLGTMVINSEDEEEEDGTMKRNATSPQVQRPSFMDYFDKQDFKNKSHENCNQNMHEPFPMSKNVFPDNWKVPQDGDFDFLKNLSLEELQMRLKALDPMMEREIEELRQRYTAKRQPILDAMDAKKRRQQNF
Description: as §1, §2, §3, §4

[5] = biological target: T5, scanMAX Kinase assay panel (Homo sapiens, UniProt Q86UX6); conditions: YANK3; 1 uM; read-out: Percent Control (%)
T5 construct: purchased DiscoverX
Description: as §1, §2, §3, §4

[6] = biological target: T6, scanMAX Kinase assay panel (Homo sapiens, UniProt P00519, T315I); conditions: 1 uM, read-out: Percent Control (%)
T6 construct: purchased DiscoverX
Description: as §1, §2, §3, §4

[7] = biological target: T7, scanMAX Kinase assay panel (Homo sapiens, UniProt Q16584); conditions: MLK3; 1 uM; read-out: Percent Control (%)
T7 construct: purchased DiscoverX
Description: as §1, §2, §3, §4

[8] = biological target: T8, scanMAX Kinase assay panel (Homo sapiens, UniProt Q9BUB5); conditions: MKNK1; 1 uM; read-out: Percent Control (%)
T8 construct: purchased DiscoverX
Description: as §1, §2, §3, §4

[9] = biological target: T9, scanMAX Kinase assay panel (Homo sapiens, UniProt P36888, D835H); conditions: FLT3 (D835H); 1 uM; read-out: Percent Control (%)
T9 construct: purchased DiscoverX
T9 sequence (P36888 27-993 D835H): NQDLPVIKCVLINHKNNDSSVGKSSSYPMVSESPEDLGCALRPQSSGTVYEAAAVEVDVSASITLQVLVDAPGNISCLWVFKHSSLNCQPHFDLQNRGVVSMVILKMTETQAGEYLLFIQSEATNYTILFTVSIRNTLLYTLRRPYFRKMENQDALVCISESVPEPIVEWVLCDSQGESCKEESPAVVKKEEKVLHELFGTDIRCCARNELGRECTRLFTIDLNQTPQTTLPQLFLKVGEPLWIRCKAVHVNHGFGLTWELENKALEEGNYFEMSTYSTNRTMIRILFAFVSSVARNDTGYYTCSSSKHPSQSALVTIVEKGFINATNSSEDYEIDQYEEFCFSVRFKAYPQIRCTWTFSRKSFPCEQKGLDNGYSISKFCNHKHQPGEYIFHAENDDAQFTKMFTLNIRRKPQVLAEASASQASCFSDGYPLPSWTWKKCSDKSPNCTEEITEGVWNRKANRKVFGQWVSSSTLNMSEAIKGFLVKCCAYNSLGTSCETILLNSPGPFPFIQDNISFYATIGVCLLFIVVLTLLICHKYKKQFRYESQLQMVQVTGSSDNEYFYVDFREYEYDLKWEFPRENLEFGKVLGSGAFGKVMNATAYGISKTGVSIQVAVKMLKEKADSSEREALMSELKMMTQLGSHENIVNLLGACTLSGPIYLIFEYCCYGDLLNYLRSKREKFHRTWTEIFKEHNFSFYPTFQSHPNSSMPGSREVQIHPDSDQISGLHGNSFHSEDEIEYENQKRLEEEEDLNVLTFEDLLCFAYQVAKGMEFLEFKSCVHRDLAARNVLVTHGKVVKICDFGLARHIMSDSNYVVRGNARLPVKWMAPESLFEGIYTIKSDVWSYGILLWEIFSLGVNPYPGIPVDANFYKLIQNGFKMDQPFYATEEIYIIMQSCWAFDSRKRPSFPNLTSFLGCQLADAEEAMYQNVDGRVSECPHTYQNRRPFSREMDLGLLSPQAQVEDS
Description: as §1, §2, §3, §4

T7 sequence (Q16584 whole entry): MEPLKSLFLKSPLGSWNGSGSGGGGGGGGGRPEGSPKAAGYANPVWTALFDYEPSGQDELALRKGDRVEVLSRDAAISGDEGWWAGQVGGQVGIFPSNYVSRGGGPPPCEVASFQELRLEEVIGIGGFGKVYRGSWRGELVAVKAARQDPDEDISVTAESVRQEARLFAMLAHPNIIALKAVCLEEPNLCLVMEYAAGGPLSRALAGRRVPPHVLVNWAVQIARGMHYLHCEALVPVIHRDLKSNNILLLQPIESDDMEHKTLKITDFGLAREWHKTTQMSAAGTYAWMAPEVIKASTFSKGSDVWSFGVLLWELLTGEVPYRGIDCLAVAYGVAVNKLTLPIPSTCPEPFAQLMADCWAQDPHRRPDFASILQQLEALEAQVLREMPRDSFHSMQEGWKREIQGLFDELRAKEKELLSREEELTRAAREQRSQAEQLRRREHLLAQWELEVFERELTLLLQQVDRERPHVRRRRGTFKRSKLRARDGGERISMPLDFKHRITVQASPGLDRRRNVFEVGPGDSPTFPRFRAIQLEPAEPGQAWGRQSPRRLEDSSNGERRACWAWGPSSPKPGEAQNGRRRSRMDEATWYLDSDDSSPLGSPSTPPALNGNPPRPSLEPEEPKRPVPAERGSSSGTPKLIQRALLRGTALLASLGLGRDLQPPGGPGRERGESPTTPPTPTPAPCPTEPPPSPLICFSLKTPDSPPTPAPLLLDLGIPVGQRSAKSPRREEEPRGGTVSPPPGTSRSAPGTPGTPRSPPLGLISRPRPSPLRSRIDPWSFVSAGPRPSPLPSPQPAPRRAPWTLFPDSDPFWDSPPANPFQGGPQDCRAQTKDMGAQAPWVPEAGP
T8 sequence (Q9BUB5 whole entry): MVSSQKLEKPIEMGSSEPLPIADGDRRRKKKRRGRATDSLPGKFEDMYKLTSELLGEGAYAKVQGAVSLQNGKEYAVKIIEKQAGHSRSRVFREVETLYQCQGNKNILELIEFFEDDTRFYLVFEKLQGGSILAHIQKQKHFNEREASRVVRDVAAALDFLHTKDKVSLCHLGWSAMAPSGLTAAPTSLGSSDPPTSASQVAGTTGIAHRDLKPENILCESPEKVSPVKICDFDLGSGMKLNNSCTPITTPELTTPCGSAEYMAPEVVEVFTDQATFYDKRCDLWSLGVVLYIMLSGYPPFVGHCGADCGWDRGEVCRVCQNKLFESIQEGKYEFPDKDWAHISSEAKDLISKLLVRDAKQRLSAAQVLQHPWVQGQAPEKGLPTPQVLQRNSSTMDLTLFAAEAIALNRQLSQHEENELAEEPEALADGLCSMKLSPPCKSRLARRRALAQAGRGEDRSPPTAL
T3 sequence (P51812 whole entry): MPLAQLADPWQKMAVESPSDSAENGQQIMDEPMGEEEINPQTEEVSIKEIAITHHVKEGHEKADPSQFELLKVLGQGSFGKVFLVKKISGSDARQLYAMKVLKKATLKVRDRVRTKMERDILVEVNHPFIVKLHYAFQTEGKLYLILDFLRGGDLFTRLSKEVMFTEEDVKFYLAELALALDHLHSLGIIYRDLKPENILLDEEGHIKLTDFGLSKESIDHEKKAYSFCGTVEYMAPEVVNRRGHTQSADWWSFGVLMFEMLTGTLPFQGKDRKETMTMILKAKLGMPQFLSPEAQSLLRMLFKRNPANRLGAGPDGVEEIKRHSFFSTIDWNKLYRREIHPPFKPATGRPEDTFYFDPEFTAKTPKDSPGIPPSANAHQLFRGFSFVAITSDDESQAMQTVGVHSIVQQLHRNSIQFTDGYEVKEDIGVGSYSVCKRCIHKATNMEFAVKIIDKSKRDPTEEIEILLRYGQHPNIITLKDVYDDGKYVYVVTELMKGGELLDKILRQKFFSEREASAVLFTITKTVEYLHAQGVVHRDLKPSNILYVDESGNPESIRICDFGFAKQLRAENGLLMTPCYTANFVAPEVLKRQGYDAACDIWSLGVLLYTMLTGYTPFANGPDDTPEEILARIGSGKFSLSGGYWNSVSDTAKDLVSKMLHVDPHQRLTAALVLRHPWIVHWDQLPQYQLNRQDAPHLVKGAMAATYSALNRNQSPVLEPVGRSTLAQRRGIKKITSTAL
T5 sequence (Q86UX6 whole entry): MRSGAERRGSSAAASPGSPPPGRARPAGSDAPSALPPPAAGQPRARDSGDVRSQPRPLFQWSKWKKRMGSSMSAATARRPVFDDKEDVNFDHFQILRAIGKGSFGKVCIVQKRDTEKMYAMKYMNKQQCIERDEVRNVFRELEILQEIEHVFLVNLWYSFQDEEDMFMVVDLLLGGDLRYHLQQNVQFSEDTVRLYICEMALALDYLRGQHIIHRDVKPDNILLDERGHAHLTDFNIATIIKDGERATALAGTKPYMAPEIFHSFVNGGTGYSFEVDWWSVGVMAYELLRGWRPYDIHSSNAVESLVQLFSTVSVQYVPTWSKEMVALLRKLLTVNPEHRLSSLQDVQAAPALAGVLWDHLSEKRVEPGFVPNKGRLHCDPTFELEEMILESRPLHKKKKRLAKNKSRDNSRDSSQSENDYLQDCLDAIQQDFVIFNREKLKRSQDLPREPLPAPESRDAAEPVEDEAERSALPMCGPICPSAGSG
T2 sequence (P08069 31-1367): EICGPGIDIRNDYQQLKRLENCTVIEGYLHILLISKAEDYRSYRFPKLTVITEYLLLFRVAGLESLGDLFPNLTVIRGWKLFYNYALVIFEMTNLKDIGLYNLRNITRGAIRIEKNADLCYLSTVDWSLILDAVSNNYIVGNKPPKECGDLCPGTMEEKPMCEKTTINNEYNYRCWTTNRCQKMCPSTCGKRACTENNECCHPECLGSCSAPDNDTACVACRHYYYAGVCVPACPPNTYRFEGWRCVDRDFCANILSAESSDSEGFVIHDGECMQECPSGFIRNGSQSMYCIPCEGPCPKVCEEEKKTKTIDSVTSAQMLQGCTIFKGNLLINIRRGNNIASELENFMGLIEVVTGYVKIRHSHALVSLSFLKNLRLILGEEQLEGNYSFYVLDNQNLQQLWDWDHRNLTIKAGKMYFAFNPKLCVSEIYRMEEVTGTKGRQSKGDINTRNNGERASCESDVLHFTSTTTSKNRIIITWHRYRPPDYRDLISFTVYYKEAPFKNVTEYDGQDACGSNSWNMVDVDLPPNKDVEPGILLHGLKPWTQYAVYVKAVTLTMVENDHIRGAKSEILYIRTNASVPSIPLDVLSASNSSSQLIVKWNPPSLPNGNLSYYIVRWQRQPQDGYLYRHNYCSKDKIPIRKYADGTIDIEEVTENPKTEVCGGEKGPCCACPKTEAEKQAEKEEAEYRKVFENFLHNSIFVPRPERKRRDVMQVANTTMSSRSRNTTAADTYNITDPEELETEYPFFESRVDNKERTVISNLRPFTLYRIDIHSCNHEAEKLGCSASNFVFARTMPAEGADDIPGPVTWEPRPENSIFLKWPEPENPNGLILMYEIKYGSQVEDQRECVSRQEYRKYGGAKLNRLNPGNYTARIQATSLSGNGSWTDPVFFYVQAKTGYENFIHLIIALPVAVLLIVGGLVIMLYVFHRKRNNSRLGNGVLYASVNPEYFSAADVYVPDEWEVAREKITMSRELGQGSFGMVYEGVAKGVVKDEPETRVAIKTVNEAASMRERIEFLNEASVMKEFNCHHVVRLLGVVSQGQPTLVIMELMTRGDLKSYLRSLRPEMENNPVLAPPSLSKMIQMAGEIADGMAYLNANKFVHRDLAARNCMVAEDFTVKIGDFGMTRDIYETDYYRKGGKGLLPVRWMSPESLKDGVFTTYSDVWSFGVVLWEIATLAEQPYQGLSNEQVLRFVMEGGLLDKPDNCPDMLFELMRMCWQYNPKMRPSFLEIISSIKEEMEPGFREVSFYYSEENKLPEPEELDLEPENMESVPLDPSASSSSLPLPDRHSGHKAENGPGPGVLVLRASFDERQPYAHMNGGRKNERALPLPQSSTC

| Structure (SMILES) | remaining binding at 1 µM [1] | remaining binding at 1 µM [2] | remaining binding at 1 µM ([3]; RSK2 (Kin.Dom.1-N-terminal)) | remaining binding at 1 µM ([3]; RSK2 (Kin.Dom.2-C-terminal)) | remaining binding at 1 µM [4] | remaining binding at 1 µM [5] | remaining binding at 1 µM ([6]; ABL1 (T315I)-nonphosphorylated) | remaining binding at 1 µM ([6]; ABL1 (T315I)-phosphorylated) | remaining binding at 1 µM [7] | remaining binding at 1 µM [8] | remaining binding at 1 µM [9] |
| --- | --- | --- | --- | --- | --- | --- | --- | --- | --- | --- | --- |
| Cc1ccc(C(=O)Nc2ccc(CN3CCN(C)CC3)c(C(F)(F)F)c2)cc1C#Cc1cnc2c(Nc3cnn(C)c3)cccn12 [Example 1, 4-methyl-3-((8-((1-methyl-1H-pyrazol-4-yl)amino)imidazo[1,2-a]pyridin-3-yl)ethynyl)-N-(4-((4-methylpiperazin-1-yl)methyl)-3-(trifluoromethyl)phenyl)benzamide] | 97% | 56% | 35% | 93% | 5% | 74% | 1% | 1% | 1% | 47% | 1% |
| Cc1cn(-c2cc(NC(=O)c3ccc(C)c(C#Cc4cnc5c(Nc6cnn(C)c6)cccn45)c3)cc(C(F)(F)F)c2)cn1 [Example 12, 4-methyl-N-(3-(4-methyl-1H-imidazol-1-yl)-5-(trifluoromethyl)phenyl)-3-((8-((1-methyl-1H-pyrazol-4-yl)amino)imidazo[1,2-a]pyridin-3-yl)ethynyl)benzamide] | 73% | 100% | 100% | 94% | 100% | 81% | 15% | 15% | 14% | 100% | 10% |
| Cc1ccc(NC(=O)C2(C(=O)Nc3ccc(F)cc3)CC2)cc1C#Cc1cnc2c(Nc3cnn(C(C)C)c3)cccn12 [Example 78] | 95% | 100% | 99% | 81% | 85% | 99% | 100% | 100% | 94% | 100% | 95% |
